In patent US8912227B1, “Bicyclic pyrrole derivatives useful as agonists of GPR120” (Janssen Pharmaceutica NV, priority 2014, dated 2014) one finds EC50 data, which are given here for four compounds.

For this experiment, the target named is T1, Human GPR120 short form (Homo sapiens, UniProt Q5NUL3).
T1 construct: expressed in transfected cells
T1 sequence (Q5NUL3 1-361): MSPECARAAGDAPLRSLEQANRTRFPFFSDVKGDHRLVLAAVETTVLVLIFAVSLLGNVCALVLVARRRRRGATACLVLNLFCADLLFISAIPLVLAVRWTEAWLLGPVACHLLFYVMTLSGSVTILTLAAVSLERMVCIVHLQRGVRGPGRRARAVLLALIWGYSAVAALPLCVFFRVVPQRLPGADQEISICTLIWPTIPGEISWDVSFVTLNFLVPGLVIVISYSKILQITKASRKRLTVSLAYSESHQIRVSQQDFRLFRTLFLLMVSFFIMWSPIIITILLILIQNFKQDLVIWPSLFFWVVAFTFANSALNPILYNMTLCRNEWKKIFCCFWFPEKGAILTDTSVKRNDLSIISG
Nature of the experiment: Human GPR120 calcium flux assay, Procedure Calcium A. It is filed as cell-based. The note with it: HEK-293 cells expressing human GPR120 short form, 2500 cells/well, FLIPR. In a few lines:
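HEK293 cells stably expressing the human GPR120 short splice variant (NM_001195755.1) were seeded at 2500 cells/well, serum-starved 1 h and loaded with Fluo-4 NW plus probenecid. Compounds (100–0.012 μM solutions, 0.2% final DMSO) were added, and FLIPR calcium flux was read for 300 s. EC50 came from a variable-slope fit (Hill <2) of Fmax−Fmin.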
Background: A change in cytosolic calcium serves as a functional read-out for many receptors and channels.

For the compound `Cc1ccc(-n2ccc(C(F)(F)F)c2COc2c(F)cc(CCC(=O)O)cc2F)cc1` [Compound 39, 3-(3,5-difluoro-4-[[1-(4-methylphenyl)-3-(trifluoromethyl)-1H-pyrrol-2-yl]methoxy]phenyl)propanoic acid], the concentration for a half-maximal effect (EC50) amounted to 306 nM.

Take `Cc1c(CCC(=O)O)ccc(OCc2cccn2-c2ccc(Cl)cc2)c1C` [Compound 1, 3-(4-{[1-(4-Chlorophenyl)-1H-pyrrol-2-yl]methoxy}-2,3-dimethylphenyl)propanoic acid]: the EC50 was found to be 353 nM.

On to `CCc1ccc(-n2ccc(C(F)(F)F)c2COc2ccc(CCC(=O)O)c(F)c2F)cc1` [Compound 34, 3-(4-[[1-(4-ethylphenyl)-3-(trifluoromethyl)-1H-pyrrol-2-yl]methoxy]-2,3-difluorophenyl)propanoic acid], for which the EC50 turned out to be 517 nM. The figure for `OCCCc1ccc(OCc2c(C(F)(F)F)ccn2-c2ccc(Cl)cc2)c(F)c1F` [Compound 29, 3-(4-{[1-(4-Chlorophenyl)-3-(trifluoromethyl)-1H-pyrrol-2-yl]methoxy}-2,3-difluorophenyl)propan-1-ol] is 1010 nM.

For orientation: EC50 means the concentration at which the effect is half-maximal.
